Experimental data taken from patent publication US5928915A, “CHO cell sialidase by recombinant DNA technology” (Genentech, Inc., priority 1997, dated 1999).
pKi: −log10 of the molar value.

Assays:
CHO cell sialidase [1] = target: T1, CHO cell sialidase (Cricetulus griseus, UniProt Q64393); assay: Sialidase kinetic constants with soluble sialylglycoconjugate substrates; assay type: biochemical, Chinese hamster; details: for substrate cleavage in words: purified enzyme
T1 construct: The sialidase described was purified from the cell culture fluid of a single production cell line (CHO 14.16); endogenous in cells; host or cells: CHO 14.16 cells (purified from the cell culture fluid)
Experimental: Fluorescent sialidase assays: Standard assay conditions for monitoring the enzyme activity during purification using the fluorescent substrate analog are: 1.3 mM 4-MUNeu5Ac, 50 mM phosphate buffer, pH 6.8, 0.3 mg bovine serum albumin and varying amounts of enzyme in a total volume of 30 μl. After addition of enzyme the samples are incubated at 37° C. in a shaking water bath for 5 minutes. The reaction is terminated and the fluorescence of the liberated umbelliferone is enhanced by the addition of 2 ml of 80 mM glycine-carbonate buffer, pH 9.7. Quantification of the product is made by measuring the fluorescence of the samples with excitation at 365 nm and emission at 450 nm using a standard of 4-methyl umbelliferone. A unit of enzyme activity is defined as a μmol/min of sialic acid liberated.
(§1) Sialidase assays with natural substrates: When natural substrates are tested with the purified enzyme, the amount of released sialic acid is measured using the thiobarbituric acid assay as modified by Uchida [Uchida et al. J. Biochem., 82:1425 (1977)] using sialic acid as standard. The amount of sialic acid in control samples, which include a complete assay mixture incubated without added enzyme is subtracted from each determination. All samples are cleared by centrifugation (1,000×G, 10 min) prior to determining the absorbance at 540 nm.
Enzyme kinetic parameters: Assay conditions (time and added enzyme) are modified for each substrate so that initial reaction rates are measured. Kinetic parameters are obtained from double reciprocal plots of the substrate saturation curves [Segel, I. H. John Wiley, New York, Enzyme Kinetics, 18 (1975)].
Substrate specificity: Several classes of sialyl glycoconjugates were tested as substrates, TABLE II. […] Transferrin is isolated from human serum and contains only 2,6 linked sialic acid residues [Baenziger, J. U. The Plasma Proteins 2nd Ed. (Putnam, F. W., ed.) 272-398, Academic Press, New York (1984)].

CHO cell sialidase [2] = target: T1, CHO cell sialidase; assay: Sialidase activity toward gangliosides and colominic acid (thiobarbiturate assay); assay type: biochemical, Chinese hamster; parameters: key to Relative Activity: NR: no reaction products detected; details: for Relative Activity: substrate 4 mM, initial rate, pH 6.0, cholic acid (0.05%) with lipid substrates, α-2,3 sialyllactose = 100; for ganglioside hydrolysis in words: cholic acid as solubilizing agent
Experimental: as §1
Some gangliosides are degraded by the sialidase (TABLE III), although these substrates require the presence of cholic acid as a solubilizing agent in the assay for optimal activity.

CHO cell sialidase [3] = target: T1, CHO cell sialidase; assay: Inhibition of CHO cell sialidase (competitive inhibitor study); assay type: biochemical, Chinese hamster
[4] = target: cytosolic sialidase from rat muscle; details: cytosol, previously reported data, unit from footnote c; cited from earlier work
[5] = system: lysosomal sialidase (fibroblasts); details: cited from earlier work
[6] = system: plasma membrane sialidase (adenovirus transformed kidney cells); details: cited from earlier work

T1 sequence (Q64393 whole entry): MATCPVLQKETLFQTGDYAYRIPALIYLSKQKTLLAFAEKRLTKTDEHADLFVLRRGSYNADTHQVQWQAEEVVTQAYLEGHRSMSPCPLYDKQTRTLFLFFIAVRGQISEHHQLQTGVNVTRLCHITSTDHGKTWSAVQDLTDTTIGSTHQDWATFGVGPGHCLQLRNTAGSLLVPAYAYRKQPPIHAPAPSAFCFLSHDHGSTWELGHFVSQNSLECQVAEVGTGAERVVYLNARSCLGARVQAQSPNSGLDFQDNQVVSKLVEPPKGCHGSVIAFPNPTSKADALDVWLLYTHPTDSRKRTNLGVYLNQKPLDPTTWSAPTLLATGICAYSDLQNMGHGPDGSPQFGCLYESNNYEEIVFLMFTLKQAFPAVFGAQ

| Relative Activity (CHO cell sialidase [2]) | ganglioside hydrolysis in words (CHO cell sialidase [2]) | Compound | substrate cleavage in words (CHO cell sialidase [1]) | other results |
| --- | --- | --- | --- | --- |
|  |  | CC(=O)N[C@H]1[C@H]([C@H](O)[C@H](O)CO)O[C@@](O[C@H](CO)[C@@H](O)[C@@H]2OC(O)(C(=O)O)C[C@H](O)[C@H]2NC(C)=O)(C(=O)O)C[C@@H]1O (some centres unmarked) [Sialic acid dimer] | substrates for the enzyme |  |
| 4% |  | Colominic Acid | hydrolyzed but at substantially reduced rates |  |
| 29% | hydrolyzed at comparable rates | II^3 NeuAc-LacCer [GM3] |  |  |
|  |  | CC(=O)N[C@H]1[C@H]([C@H](O)[C@H](O)CSc2ccc(N=[N+]=[N-])cc2[N+](=O)[O-])OC(C(=O)O)=C[C@@H]1O [9-PANP-Neu5Ac2en, 9-S-(4'-azido-2'-nitro-phenyl)-5-acetamido-2,6 anhydro-9-thio-2,5,9-trideoxy-D-glycero-D-galacto-non-2-enonic acid] |  | inhibition in words (CHO cell sialidase [3]): weakly inhibited |
|  |  | Transferrin: isolated from human serum and contains only 2,6 linked sialic acid residues | cleaved much more slowly than that bound to recombinant human deoxyribonuclease I | Vmax (CHO cell sialidase [1]; apparent, standard assay conditions, average of duplicates, relative error about 10%): 2 µmol/min/mg; Km values compared (in words) (CHO cell sialidase [1]; transferrin versus deoxyribonuclease I): nearly identical |
| 21% | hydrolyzed at comparable rates | IV^3 NeuAc, II^3 NeuAc-GgOse4 Cer [GD1a] |  |  |
|  |  | CC(=O)N[C@H]1[C@H]([C@H](O)[C@H](O)CO)O[C@@](O[C@H]2[C@@H](O)[C@@H](CO)O[C@@H](O[C@H]3[C@H](O)[C@@H](O)C(O)O[C@@H]3CO)[C@@H]2O)(C(=O)O)C[C@@H]1O (some centres unmarked) [sialyl lactose] | readily cleaved |  |
| NR | not substrates | II^3 NeuAc-GgOse4 Cer [GM1] |  |  |
| NR | not substrates | II^3 (NeuAc)2 -GgOse4 Cer [GD1b] |  |  |
| NR | not substrates | II^3 NeuAc-GgOse3 Cer [GM2] |  |  |
| 100% |  | CC(=O)N[C@H]1[C@H]([C@H](O)[C@H](O)CO)O[C@@](O[C@H]2[C@@H](O)[C@@H](CO)O[C@@H](O[C@H]3[C@H](O)[C@@H](O)C(O)O[C@@H]3CO)[C@@H]2O)(C(=O)O)C[C@@H]1O (stereo partly drawn) [α-2,3 Sialyllactose] |  |  |
|  |  | CC(=O)N[C@H]1[C@H]([C@H](O)[C@H](O)CN=[N+]=[N-])OC(C(=O)O)=C[C@@H]1O [9-azido-Neu5Ac2en, 5-acetamido-2,6-anhydro-9-azido-3,5,9-trideoxy-D-glycero-D-galacto-non-2-enonic acid] |  | pKi [4]: 4.30; inhibition in words [5]: strongly inhibited; pKi ([6]; adenovirus transformed kidney cells, plasma membrane, previously reported data, unit from footnote c): 5.00; inhibition in words ([6]; plasma membrane sialidase): strongly inhibited; inhibition in words (CHO cell sialidase [3]): moderately inhibited |
| 23% | hydrolyzed at comparable rates | IV^3 NeuAc, II^3 (NeuAc)2 -GgOse4 Cer [GT1b] |  |  |
